Measurements taken from patent US20150192570A1, “METHODS FOR DETERMINING WHETHER A CYTOMEGALOVIRUS INFECTION IN A TRANSPLANTED PATIENT IS SUCEPTIBLE TO INDUCE ALLOGRAFT REJECTION” (priority 2012, published 2015).

Experiments:
[1] = tested on: MART.22 HLA-E-restricted CD8 T cells; experiment: Peptide/HLA-E*0101 tetramer staining of MART.22 T cells by flow cytometry; assay type: binding, human; conditions: PE-streptavidin tetramers, 1 h
Protocol: A/ TNF production in response to stimulation with .221 cells pulsed with synthetic peptides. .221 cells were incubated for 1 h with range concentrations of the indicated peptides before addition of MART.22 T cells. After 6 h, T cells were fixed, permeabilized and stained for intracellular TNF-α. Results are expressed as percentage of TNF-producing T cells. B/ Peptide-MHC tetramer staining of HLA-E-restricted CD8 T cells. MART.22 T cells were incubated for 1 h with biotyniled HLA-E monomers refolded with the indicated peptides and tetramerized with PE-coupled streptavidin. Peptide-HLA-E tetramers staining was assessed by flow cytometry and MFI are indicated.
Peptides VMAPRTLLL and VMAPRTLVL (HLA-A*01- and HLA-A*02-derived signal peptides respectively) with purity >85% were purchased from Eurogentec (Angers, France). HLA-E*0101/peptide monomers were generated by the recombinant protein facility of SFR26 (Nantes, France).
For membrane staining, 2×10^5 cells were incubated at 4° C. with 10 μg/ml of Ab (specific or isotype control) or tetramers for 30 min or 1 h respectively. When non-conjugated mAb were used, a second incubation with PE-conjugated goat F(ab′)2 fragment anti-Mouse IgG (Beckman Coulters) was performed. 5×10^4 cells were acquired in the viable cells gate on a FACScalibur flow cytometer using CellQuest software (Becton Dickinson).

[2] = tested on: MART.22 HLA-E-restricted CD8 T cells; experiment: TNF production by MART.22 against unrecognized endothelial culture HAEC#402 pulsed with synthetic peptides; assay type: cell-based, human; conditions: HAEC#402 loaded with 10^2 μM of peptide
Protocol: A/ Reactivity of HLA-E-restricted T cells against unrecognized endothelial cultures pulsed with synthetic peptides. HAECs were incubated for 1 h with range concentrations of the indicated peptides before MART.22 T cells were added. After 6 h, T cells were fixed, permeabilized and stained for intracellular TNF-α. Results are expressed as percentage of TNF-producing T cells. B/ Impact of KIR2DL2-ligands expression by HAECs on HLA-E-restricted T cells alloreactivity. Percentages of TNF-producing MART.22 T cells are shown for HAECs with none, one or two protective HLA-C alleles. C/ Reactivity of HLA-E-restricted T cells against unrecognized endothelial cultures in the presence of blocking antibodies. HAECs were incubated with MART.22 T cells in the presence or not of indicated concentrations of blocking antobodies. After 6 h, T cells were fixed, permeabilized and stained for intracellular TNF-α. Results are expressed as percentage of TNF-producing T cells.
(§1) For cytokine/perforine/granzyme intracellular staining, 1×10^5 T cells were stimulated in the presence of Brefeldin A (Sigma-Aldrich, 10 μg/ml) with 2×10^5 target cells (B-EBV cells or HAEC) for 6 h at 37° C., in the presence or not of blocking Abs. […] Cells were then fixed with 4% paraformaldehyde (Sigma-Aldrich), labeled with specific mAbs and analyzed by flow cytometry.

HAEC [3] = experiment: Recognition (lysis, cytokine production) of IFN-γ treated endothelial cultures by MART.22; assay type: cell-based, human
Protocol: A/ impact of IFN-γ treatment on surface expression of HLA-E (thick lines) and total HLA-I (dotted lines) molecules by endothelial cultures. MFI are indicated. B/ HLA-E-restricted CD8 T cells cytotoxicity toward endothelial cultures treated or not with IFN-γ. 103 ^51 Cr-labeled HAECs pretreated (closed circles) or not (open circle) with IFN-γ were co-cultured for 4 h with T cells at various E:T ratio. Cytotoxic activity was assessed trought measure of Chromium release in the supernatants. Percentages of specific lysis are indicated. Means and standard deviations of triplicate wells are shown for one representative experiments out of three performed. C/ HLA-E-restricted CD8 T cells cytokine production upon stimulation with endothelials cultures treated or not with IFN-γ. MART.22 T cells were fixed, permeabilized and stained for intracellular cytokines following 6 h of incubation with HAECs pretreated (black bars) or not (white bars) with INF-γ. Data are expressed as percentages of intracellular cytokine secreting T cells upon stimulation. […] Data are expressed as percentages of intracellular TNF secreting T cells upon stimulation. […]
as §1
Target cells were labeled with 100 μCi Na^51CrO4 (Oris Industrie, Gif-sur-Yvette, France) for 1 h at 37° C., and incubated 4 h at 37° C., with effectors T cells at various E/T ratios. […] Percentage of target cell lysis was calculated according to the following formula: [(experimental release−spontaneous release)/(maximum release−spontaneous release)]×100. Maximum and spontaneous releases were determined by, respectively, adding 0.1% Triton X-100 or medium to ^51Cr-labeled target cells in the absence of T cells.

HAEC [4] = experiment: Surface expression of HLA-E and total HLA-I on endothelial cultures after IFN-γ treatment (flow cytometry); assay type: cell-based, human; conditions: IFN-γ 50 U/mL, 48 h
Protocol: A/ impact of IFN-γ treatment on surface expression of HLA-E (thick lines) and total HLA-I (dotted lines) molecules by endothelial cultures. MFI are indicated. B/ HLA-E-restricted CD8 T cells cytotoxicity toward endothelial cultures treated or not with IFN-γ. 103 ^51 Cr-labeled HAECs pretreated (closed circles) or not (open circle) with IFN-γ were co-cultured for 4 h with T cells at various E:T ratio. Cytotoxic activity was assessed trought measure of Chromium release in the supernatants. Percentages of specific lysis are indicated. Means and standard deviations of triplicate wells are shown for one representative experiments out of three performed. C/ HLA-E-restricted CD8 T cells cytokine production upon stimulation with endothelials cultures treated or not with IFN-γ. MART.22 T cells were fixed, permeabilized and stained for intracellular cytokines following 6 h of incubation with HAECs pretreated (black bars) or not (white bars) with INF-γ. Data are expressed as percentages of intracellular cytokine secreting T cells upon stimulation. D/ HLA-E-restricted CD8 T cells cytokine production upon stimulation with endothelials cultures treated or not by IFN-γ, in the presence of blocking antibodies. […] Data are expressed as percentages of intracellular TNF secreting T cells upon stimulation. […]

[5] = target: classical HLA-I molecules on IFN-γ treated HAEC#495; experiment: cell-based or functional assay
[6] = tested on: MART.22 HLA-E-restricted CD8 T cells; experiment: TNF production by MART.22 T cells in response to .221 cells pulsed with synthetic peptides (intracellular TNF-α staining); assay type: cell-based, human; conditions: .221 cells loaded with synthetic peptide
Protocol: For cytokine/perforine/granzyme intracellular staining, 1×10^5 T cells were stimulated in the presence of Brefeldin A (Sigma-Aldrich, 10 μg/ml) with 2×10^5 target cells (B-EBV cells or HAEC) for 6 h at 37° C., in the presence or not of blocking Abs. For peptide loading, target cells were incubated with peptides for 1 h at 37° C. before incubation with T cells. Cells were then fixed with 4% paraformaldehyde (Sigma-Aldrich), labeled with specific mAbs and analyzed by flow cytometry.

[7] = target: protective HLA-C molecules (KIR2DL2 ligands) expressed on HAEC; experiment: cell-based or functional assay

CSCC[C@H](NC(=O)[C@@H](N)C(C)C)C(=O)N[C@@H](C)C(=O)N1CCC[C@H]1C(=O)N[C@@H](CCCNC(=N)N)C(=O)N[C@H](C(=O)N[C@@H](CC(C)C)C(=O)N[C@@H](CC(C)C)C(=O)N[C@@H](CC(C)C)C(=O)O)[C@@H](C)O [VMAPRTLLL]
binding of HLA-E*0101 tetramers refolded with the peptide to MART.22 [1]: bind
TNF secreting T cells [2]: 40%

IFN-γ: recombinant human IFN-γ (50 U/mL, Imukin, Boehringer Ingelheim)
MART.22 reactivity against IFN-γ treated HAEC#116 (HAEC [3]; HAEC#116, unpublished data): completely abolished
MART.22 mediated lysis and cytokine production (HAEC [3]; IFN-γ treated endothelial cells): decreased
TNF-α producing T cells upon stimulation with HAEC#495 (HAEC [3]; after IFN-γ treatment, 61% untreated): 33%
HLA-E and total HLA-I surface expression on endothelial cells (HAEC [4]): enhances

ILT-2 expressed by MART.22 T cells (from UniProt Q8NHL6 24-650) (receptor)
TNF-α producing T cells against IFN-γ treated endothelial cells at the maximal dose of mAb against classical HLA-I molecules [5]: 69%

CSCC[C@H](NC(=O)[C@@H](N)C(C)C)C(=O)N[C@@H](C)C(=O)N1CCC[C@H]1C(=O)N[C@@H](CCCNC(=N)N)C(=O)N[C@H](C(=O)N[C@H](C(=O)N[C@@H](CC(C)C)C(=O)N[C@@H](CC(C)C)C(=O)O)C(C)C)[C@@H](C)O [VMAPRTVLL]
TNF secreting T cells [2]: 18%

VMAPRTLVL [HLA-A*02-derived signal peptide, identical to a CMV UL40 peptide]
binding of HLA-E*0101 tetramers refolded with the peptide to MART.22 [1]: no significant binding
recognition of peptide-pulsed .221 cells by MART.22 [6]: not recognized at all

VTAPRTVLL
recognition of peptide-pulsed .221 cells by MART.22 [6]: not recognized at all

KIR2DL2 expressed by MART.22 T cells (from UniProt P43627 22-348) (receptor)
TNF-α producing T cells against IFN-γ treated endothelial cells at the maximal dose of mAb against classical HLA-I molecules [5]: 69%
TNF producing T cells, endothelial cells with no appropriate HLA-C allele (HAEC#323) [7]: 75%
TNF producing T cells, endothelial cells with only one appropriate HLA-C allele (HAEC#112, #331 and #495) [7]: 54%
TNF producing T cells, mean value for endothelial cells with two appropriate HLA-C alleles (HAEC#116, #337 and #402) [7]: 18%
TNF-producing T cells against HAEC#402 in the presence of anti-HLA-A/B/C Abs [7]: < 25%

VTAPRTLLL
recognition of peptide-pulsed .221 cells by MART.22 [6]: not recognized at all
